How the values were obtained:
[1] = target: T1, ALK protein in H3122 (EML4-ALK) cells (Homo sapiens, UniProt Q9UM73); test: Western blot of ALK protein level (degradation, DC50), ALK phosphorylation and downstream signaling in H3122 cells; type: cell-based; conditions: ALK protein degradation in H3122 cells
T1 construct: EML4 (Echinoderm microtubule-associated protein-like 4, Q9HC35) fusion partner, variant 1; host or cells: NCI-H3122 lung adenocarcinoma cells; the other entry of the earlier key: EML4 (Q9HC35, Echinoderm microtubule-associated protein-like 4)
Procedure: Cancer cells were seeded in 1 ml RPMI1640 medium in 24-well plate at the density of 3×10^5 or 1.5×10^5 cells/ml. […] Then cells were washed twice with PBS and lyzed in RIPA lysis buffer with Halt Proteinase and Phosphotase inhibitor. Equal amount of proteins were loaded to run SDS-PAGE gels after denature. The gels were blotted to PVDF membrane. After incubating with first and secondary antibodies, the images were developed using SuperSignal West Pico Chemiluminescent Substrate.
DC50 (concentration required to degrade protein by half) were calculated based on the intensity from western blot, and data were analyzed via Prism GraphPad with non-linear regression.

SR (NPM-ALK) cells = test: Growth inhibition IC50 in ALCL SR cells (CCK8/WST, 72 hours); type: cell-based; conditions: SR cells, WST
Procedure: SR (NPM-ALK) and NCI-H2228 (EML4-ALK, V3) cells were purchased from ATCC. […] All Cells were cultured in RPMI1640 medium with 10% FBS and Penicillin-Streptomycin in 37° C. incubator with 5% CO2.
Cells were seeded at specific density in 96 well plates one day before treatment. […] Viable cells were measured via CCK8 reagent and IC50s were calculated via Prism Graphad. Experiments were repeated at least three times.

[2] = 72 h, Brigatinib-based PROTAD molecules (Table 3)

T1 sequence (Q9UM73 with tags, fused parts or gaps): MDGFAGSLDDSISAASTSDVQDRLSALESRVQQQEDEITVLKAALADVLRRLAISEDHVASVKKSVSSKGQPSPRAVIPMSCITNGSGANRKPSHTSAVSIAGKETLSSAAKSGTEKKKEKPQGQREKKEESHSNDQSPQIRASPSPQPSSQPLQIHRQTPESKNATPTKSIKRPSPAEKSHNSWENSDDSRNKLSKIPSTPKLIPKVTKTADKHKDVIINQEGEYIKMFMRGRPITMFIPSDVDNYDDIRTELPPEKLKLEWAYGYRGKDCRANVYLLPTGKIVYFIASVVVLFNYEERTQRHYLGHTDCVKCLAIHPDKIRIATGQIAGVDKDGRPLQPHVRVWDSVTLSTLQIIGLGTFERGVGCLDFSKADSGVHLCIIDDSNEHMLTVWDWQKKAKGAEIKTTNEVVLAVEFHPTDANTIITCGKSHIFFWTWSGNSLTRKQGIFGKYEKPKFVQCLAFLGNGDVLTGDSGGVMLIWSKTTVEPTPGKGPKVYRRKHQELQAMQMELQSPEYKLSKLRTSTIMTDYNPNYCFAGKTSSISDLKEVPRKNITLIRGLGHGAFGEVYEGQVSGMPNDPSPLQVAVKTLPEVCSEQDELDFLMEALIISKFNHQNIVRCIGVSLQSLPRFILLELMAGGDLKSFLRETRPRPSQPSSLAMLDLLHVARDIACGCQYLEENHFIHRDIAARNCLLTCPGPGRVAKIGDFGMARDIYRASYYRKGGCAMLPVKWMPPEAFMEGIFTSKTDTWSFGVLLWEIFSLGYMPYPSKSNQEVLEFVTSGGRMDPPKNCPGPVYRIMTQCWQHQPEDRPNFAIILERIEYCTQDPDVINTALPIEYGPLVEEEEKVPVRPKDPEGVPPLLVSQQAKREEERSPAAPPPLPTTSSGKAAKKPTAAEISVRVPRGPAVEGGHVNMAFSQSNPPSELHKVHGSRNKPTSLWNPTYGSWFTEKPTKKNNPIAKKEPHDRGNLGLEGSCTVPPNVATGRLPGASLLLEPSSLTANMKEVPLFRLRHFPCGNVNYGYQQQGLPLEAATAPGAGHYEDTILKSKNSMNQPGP

CCc1cc2c(cc1N1CCN(C(=O)CCCc3cn(CCCC(=O)N[C@H](C(=O)N4C[C@H](O)C[C@H]4C(=O)NCc4ccc(-c5scnc5C)cc4)C(C)(C)C)nn3)CC1)C(C)(C)c1[nH]c3cc(C#N)ccc3c1C2=O [SIAIS164155, (2S,4R)-1-((S)-2-(4-(4-(4-(4-(3-cyano-9-ethyl-6,6-dimethyl-11-oxo-6,11-dihydro-5H-benzo[b]carbazol-8-yl)piperazin-1-yl)-4-oxobutyl)-1H-1,2,3-triazol-1-yl)butanamido)-3,3-dimethylbutanoyl)-4-hydroxy-N-(4-(4-methylthiazol-5-yl)benzyl)pyrrolidine-2-carboxamide]
DC50 [1]: 10 to 50 nM | IC50 (SR (NPM-ALK) cells; Alectinib based ALK PROTAD compounds (Table 4)): 104 nM

COc1cc(N2CCC(NC(=O)CCC(=O)NCCNc3cccc4c3C(=O)N(C3CCC(=O)NC3=O)C4=O)CC2)ccc1Nc1ncc(Cl)c(Nc2ccccc2P(C)(C)=O)n1 (centres unmarked) [SIAIS164157, N1-(1-(4-((5-chloro-4-((2-(dimethylphosphoryl)phenyl)amino)pyrimidin-2-yl)amino)-3-methoxyphenyl)piperidin-4-yl)-N4-(2-((2-(2,6-dioxopiperidin-3-yl)-1,3-dioxoisoindolin-4-yl)amino)ethyl)succinamide]
DC50 [1]: 1 to 50 nM | IC50 (SR (NPM-ALK) cells; [2]): 15.7 ± 15 nM

COc1cc(N2CCN(C(=O)CCOCCOCCC(=O)N[C@H](C(=O)N3C[C@H](O)C[C@H]3C(=O)NCc3ccc(-c4scnc4C)cc3)C(C)(C)C)CC2)ccc1Nc1ncc(Cl)c(Nc2ccccc2P(C)(C)=O)n1 [SIAIS197079, (2S,4R)-1-((S)-2-(3-(2-(3-(4-(4-((5-chloro-4-((2-(dimethylphosphoryl)phenyl)amino)pyrimidin-2-yl)amino)-3-methoxyphenyl)piperazin-1-yl)-3-oxopropoxy)ethoxy)propanamido)-3,3-dimethylbutanoyl)-4-hydroxy-N-(4-(4-methylthiazol-5-yl)benzyl)pyrrolidine-2-carboxamide]
DC50 [1]: 50 to 500 nM | IC50 (SR (NPM-ALK) cells; [2]): 15.9 ± 8.5 nM

COc1cc(N2CCN(C(=O)CCNc3cccc4c3C(=O)N(C3CCC(=O)NC3=O)C4=O)CC2)ccc1Nc1ncc(Cl)c(Nc2ccccc2P(C)(C)=O)n1 (centres unmarked) [SIAIS1197057, 4-((3-(4-(4-((5-chloro-4-((2-(dimethylphosphoryl)phenyl)amino)pyrimidin-2-yl)amino)-3-methoxyphenyl)piperazin-1-yl)-3-oxopropyl)amino)-2-(2,6-dioxopiperidin-3-yl)isoindoline-1,3-dione]
DC50 [1]: 50 to 500 nM | IC50 (SR (NPM-ALK) cells; [2]): 17.7 ± 9.6 nM

COc1cc(N2CCN(C(=O)CCCNc3cccc4c3C(=O)N(C3CCC(=O)NC3=O)C4=O)CC2)ccc1Nc1ncc(Cl)c(Nc2ccccc2P(C)(C)=O)n1 (centres unmarked) [SIAIS1197059, 4-((4-(4-(4-((5-chloro-4-((2-(dimethylphosphoryl)phenyl)amino)pyrimidin-2-yl)amino)-3-methoxyphenyl)piperazin-1-yl)-4-oxobutyl)amino)-2-(2,6-dioxopiperidin-3-yl)isoindoline-1,3-dione]
DC50 [1]: 1 to 50 nM | IC50 (SR (NPM-ALK) cells; [2]): 10.7 ± 6.2 nM

COc1cc(N2CCN(C(=O)CCCCNc3cccc4c3C(=O)N(C3CCC(=O)NC3=O)C4=O)CC2)ccc1Nc1ncc(Cl)c(Nc2ccccc2P(C)(C)=O)n1 (centres unmarked) [SIAIS1197061, 4-((5-(4-(4-((5-chloro-4-((2-(dimethylphosphoryl)phenyl)amino)pyrimidin-2-yl)amino)-3-methoxyphenyl)piperazin-1-yl)-5-oxopentyl)amino)-2-(2,6-dioxopiperidin-3-yl)isoindoline-1,3-dione]
DC50 [1]: 50 to 500 nM | IC50 (SR (NPM-ALK) cells; [2]): 8 ± 4.4 nM

COc1cc(N2CCN(C(=O)CCCCCNc3cccc4c3C(=O)N(C3CCC(=O)NC3=O)C4=O)CC2)ccc1Nc1ncc(Cl)c(Nc2ccccc2P(C)(C)=O)n1 (centres unmarked) [SIAIS1197063, 4-((6-(4-(4-((5-chloro-4-((2-(dimethylphosphoryl)phenyl)amino)pyrimidin-2-yl)amino)-3-methoxyphenyl)piperazin-1-yl)-6-oxohexyl)amino)-2-(2,6-dioxopiperidin-3-yl)isoindoline-1,3-dione]
DC50 [1]: 50 to 500 nM | IC50 (SR (NPM-ALK) cells; [2]): 14.1 ± 7.3 nM

COc1cc(N2CCN(C(=O)CCOCCNc3cccc4c3C(=O)N(C3CCC(=O)NC3=O)C4=O)CC2)ccc1Nc1ncc(Cl)c(Nc2ccccc2P(C)(C)=O)n1 (centres unmarked) [SIAIS1197065, 4-((2-(3-(4-(4-((5-chloro-4-((2-(dimethylphosphoryl)phenyl)amino)pyrimidin-2-yl)amino)-3-methoxyphenyl)piperazin-1-yl)-3-oxopropoxy)ethyl)amino)-2-(2,6-dioxopiperidin-3-yl)isoindoline-1,3-dione]
DC50 [1]: 100 to 500 nM | IC50 (SR (NPM-ALK) cells; [2]): 20.7 ± 14.9 nM

COc1cc(N2CCN(C(=O)CCOCCOCCNc3cccc4c3C(=O)N(C3CCC(=O)NC3=O)C4=O)CC2)ccc1Nc1ncc(Cl)c(Nc2ccccc2P(C)(C)=O)n1 (centres unmarked) [SIAIS1197067, 4-((2-(2-(3-(4-(4-((5-chloro-4-((2-(dimethylphosphoryl)phenyl)amino)pyrimidin-2-yl)amino)-3-methoxyphenyl)piperazin-1-yl)-3-oxopropoxy)ethoxy)ethyl)amino)-2-(2,6-dioxopiperidin-3-yl)isoindoline-1,3-dione]
DC50 [1]: 100 to 500 nM | IC50 (SR (NPM-ALK) cells; [2]): 16.1 ± 6.1 nM

COc1cc(N2CCN(C(=O)CCOCCOCCOCCNc3cccc4c3C(=O)N(C3CCC(=O)NC3=O)C4=O)CC2)ccc1Nc1ncc(C)c(Nc2ccccc2P(C)(C)=O)n1 (centres unmarked) [SIAIS1197069, 4-((2-(2-(2-(3-(4-(4-((4-((2-(dimethylphosphoryl)phenyl)amino)-5-methylpyrimidin-2-yl)amino)-3-methoxyphenyl)piperazin-1-yl)-3-oxopropoxy)ethoxy)ethoxy)ethyl)amino)-2-(2,6-dioxopiperidin-3-yl)isoindoline-1,3-dione]
DC50 [1]: 100 to 500 nM | IC50 (SR (NPM-ALK) cells; [2]): 22.3 ± 18.2 nM

COc1cc(N2CCN(C(=O)CCOCCOCCOCCOCCOCCNc3cccc4c3C(=O)N(C3CCC(=O)NC3=O)C4=O)CC2)ccc1Nc1ncc(Cl)c(Nc2ccccc2P(C)(C)=O)n1 (centres unmarked) [SIAIS1197073, 4-((18-(4-(4-((5-chloro-4-((2-(dimethylphosphoryl)phenyl)amino)pyrimidin-2-yl)amino)-3-methoxyphenyl)piperazin-1-yl)-18-oxo-3,6,9,12,15-pentaoxaoctadecyl)amino)-2-(2,6-dioxopiperidin-3-yl)isoindoline-1,3-dione]
DC50 [1]: 100 to 500 nM | IC50 (SR (NPM-ALK) cells; [2]): 34.2 ± 23.9 nM

COc1cc(N2CCN(C(=O)CCOCCOCCOCCC(=O)N[C@H](C(=O)N3C[C@H](O)C[C@H]3C(=O)NCc3ccc(-c4scnc4C)cc3)C(C)(C)C)CC2)ccc1Nc1ncc(Cl)c(Nc2ccccc2P(C)(C)=O)n1 [SIAIS1197081, (2S,4R)-1-((S)-2-(tert-butyl)-16-(4-(4-((5-chloro-4-((2-(dimethylphosphoryl)phenyl)amino)pyrimidin-2-yl)amino)-3-methoxyphenyl)piperazin-1-yl)-4,16-dioxo-7,10,13-trioxa-3-azahexadecanoyl)-4-hydroxy-N-(4-(4-methylthiazol-5-yl)benzyl)pyrrolidine-2-carboxamide]
DC50 [1]: 50 to 500 nM | IC50 (SR (NPM-ALK) cells; [2]): 32.5 ± 19.8 nM

COc1cc(N2CCN(C(=O)CCOCCOCCOCCOCCC(=O)N[C@H](C(=O)N3C[C@H](O)C[C@H]3C(=O)NCc3ccc(-c4scnc4C)cc3)C(C)(C)C)CC2)ccc1Nc1ncc(Cl)c(Nc2ccccc2P(C)(C)=O)n1 [SIAIS1197083, (2S,4R)-1-((S)-2-(tert-butyl)-19-(4-(4-((5-chloro-4-((2-(dimethylphosphoryl)phenyl)amino)pyrimidin-2-yl)amino)-3-methoxyphenyl)piperazin-1-yl)-4,19-dioxo-7,10,13,16-tetraoxa-3-azanonadecanoyl)-4-hydroxy-N-(4-(4-methylthiazol-5-yl)benzyl)pyrrolidine-2-carboxamide]
DC50 [1]: 50 to 500 nM | IC50 (SR (NPM-ALK) cells; [2]): 49.9 ± 30.8 nM

From patent publication US11771709B2, “ALK protein degradation agent and anti-tumor application thereof” (ShanghaiTech University, priority 2017, dated 2023)
